Laboratory results as given in patent publication US7208479B2, “Peritoneal dialysis solution containing modified icodextrins” (Baxter International, Inc., priority 1998, dated 2007).

What was measured:
[1] = Stability under sterilization conditions: absorbance (284 nm) variation after sterilization (121° C. 45 min); type: physicochemical
Procedure: The products were tested for stability under sterilization conditions at neutral pH. A significant reduction of absorbance variation at 284 nm (Δ Abs) after sterilization is observed for the reduced compounds. The reduced compounds from Example 1 are listed as HMW1 red, HMW2 red and LMW red in Table 1.
Utilizing the three different samples of maltodextrins discussed above with respect to Example 1, oxidation reactions were carried out on each sample by dissolving 15 grams of maltodextrin in 30 ml of water and combining the starch solution with an effective amount of NaOCl in 70 ml of a solution containing sodium hydroxide and having a pH of 8±0.5 at a temperature of 43° C. The combined solutions were allowed to stand for approximately 2 hours and the product solution was purified by gel permeation chromatography. Again, the products were analyzed using ^13C NMR spectroscopy and were tested for stability under sterilization conditions as illustrated in Table 1. While the oxidation products, HMW1 ox HMW2 ox and LMW ox show contrasting results, this is attributed to the high molecular weight oxidized products not being completely purified.
The stability of one product shown in Table 3 was tested for stability under sterilization conditions and the observed variation at 284 nm is compared with that of glucose and methyl glycoside.

[2] = In vitro dialysis test predictive of dialytic efficiency: volume increase inside dialysis bag (Spectra Pore membrane, cut-off 500 Dalton); details: 37° C.
Procedure: In an in vitro test predictive of the dialytic efficiency of the osmotic agents described above, small dialysis bags with Spectra Pore membrane with a cut-off 500 Dalton (diameter 15 mm, 15 cm high) were filled with 3 ml of water solutions at different concentrations (2.5, 5.0% w/v of the samples). The bags were immersed in 200 ml of distilled water and 37° C. while stirring the extra dialysis solution. At given times (0, 1, 2, 3, 4, 5, 6 hours), the increase in the volume inside the dialysis bag was evaluated by weight and expressed as a percentage increase compared to the starting volume (Δw %).

[3] = 2.5% solution at pH 7 (footnote *), sterilization 121° C. 45 min
[4] = Table 4, 2.5% (w/v), sterilization 121° C. 45 min
[5] = 2.5% w/v, listed as α-methly-gluc.
[6] = 2.5% w/v, listed as β-methly-gluc.

Compound | ΔAbs (pH 6.5–7.5) [1, 3] | Δw % 1 h ([2]; 2.5% w/v) | Δw % 2 h ([2]; 2.5% w/v) | Δw % 3 h ([2]; 2.5% w/v) | Δw % 4 h ([2]; 2.5% w/v) | Δw % 5 h ([2]; 2.5% w/v) | Δw % 6 h ([2]; 2.5% w/v) | ΔAbs neutra (pH 6.5–7.5) [1, 4] | Δw % 1 h ([2]; 5% w/v) | Δw % 2 h ([2]; 5% w/v) | Δw % 3 h ([2]; 5% w/v) | Δw % 4 h ([2]; 5% w/v) | Δw % 5 h ([2]; 5% w/v) | Δw % 6 h ([2]; 5% w/v) | also measured
O=C1O[C@H](CO)[C@@H](O)[C@H](O)[C@H]1O [D(+)-Gluconolactone] | 0.01 |  |  |  |  |  |  |  |  |  |  |  |  |  | 
O=C[C@H](O)[C@@H](O)[C@H](O)[C@H](O)CO [Glucose] | 0.98 | 15.3% | 34.2% | 43.4% | 57.3% | 74.2% | 90.9% | 0.07 |  |  |  |  |  |  | ΔAbs (pH 6.5–7.5) ([1]; 5% solution, after minus before sterilization 121° C. 45 min, pH 6.5–7.5): 2.54 ± 0.78; ΔAbs (pH 5.5) ([1]; 5% solution, sterilization 121° C. 45 min, pH 5.5): 2.36 ± 0.96; ΔAbs neutra (pH 6.5–7.5) ([1]; Table 4, 5% (w/v), sterilization 121° C. 45 min): 2.43 ± 0.9
O=P(O)(O)O[C@H]1O[C@H](CO)[C@@H](O)[C@H](O)[C@H]1O [gluc.-1-phos., glucose-1-phosphate] |  | 35.8% | 53.6% | 76.3% | 95.9% | 120.1% | 144.1% |  |  |  |  |  |  |  | 
COC1OC(CO)C(O)C(O)C1O (stereo not drawn) [α-methyl-gluc.] |  |  |  |  |  |  |  |  | 30.9% | 60.7% | 86.5% | 107.9% | 123.2% | 142.0% | Δw % 1 h [2, 5]: 21.8%; Δw % 2 h [2, 5]: 39.2%; Δw % 3 h [2, 5]: 55.4%; Δw % 4 h [2, 5]: 67.64%; Δw % 5 h [2, 5]: 79.5%; Δw % 6 h [2, 5]: 92.1%
COC1OC(CO)C(O)C(O)C1O (stereo not drawn) [β-methyl-gluc.] |  |  |  |  |  |  |  |  | 45% | 76.1% | 103.0% | 129.7% | 151.7% | 174.9% | Δw % 1 h [2, 6]: 34.0%; Δw % 2 h [2, 6]: 50.3%; Δw % 3 h [2, 6]: 63.7%; Δw % 4 h [2, 6]: 67.6%; Δw % 5 h [2, 6]: 77.7%; Δw % 6 h [2, 6]: 86.5%
Methyl glycoside |  |  |  |  |  |  |  | 0.01 |  |  |  |  |  |  | 
